Reference: patent US12415794B2 (Edgewise Therapeutics, Inc., priority 2018, dated 2025)

Experiments:
[1] = biological target: skeletal myofibrils (myosin ATPase); assay: Skeletal Myofibril ATPase Assay; format: biochemical
Experimental: FIG. 7 depicts the buffer preparation procedures of Buffer A and Buffer B for the skeletal myofibril ATPase assay described in Example 12. Buffers were stored on ice until use.
Example 12: Skeletal Myofibril ATPase Assay
(§1) Overview: Myosin ATPase activity is assessed by using a coupled reaction system, in which ADP generated by the myosin ATPase function is coupled to the disappearance of NADH through the pyruvate kinase/lactate dehydrogenase (PK-LDH) system. ATPase activity produces ADP, which is used as a substrate for PK to produce pyruvate and regenerate ATP. The pyruvate is then used as a substrate by LDH to oxidize NADH to NAD+. The rate of the reaction is monitored through the time-dependent disappearance of NADH using absorbance at 340 nm. Inhibition of ATPase activity by the assayed compounds is indicated by a reduced rate of NADH loss, relative to vehicle-treated controls, over the experimental time window. To assess the selectivity of the assayed compounds for skeletal myofibrils, the compounds are counter-screened in cardiac myofibrils.
Materials: The following stock solutions and reagents were used in the Skeletal Myofibril ATPase Assay:
Stock Solutions of pCa buffer. Combine PIPES, CaCl2, and EGTA solutions with 70 mL of water. Adjust pH to 7.0 and bring final volume to 100 mL.
Skeletal Myofibril ATPase Assay Procedure: BSA, ATP, NADH, PEP, and DTT solutions were thawed at room temperature, then transferred to ice. Pellet-frozen myofibrils were transferred with approximately twice the required volume into a sufficiently large tube and capped. Myofibrils were thawed by rolling in a water bath for approximately 15 min at room temperature and cooled on ice. Buffers A and B were prepared by adjusting volumes as necessary for required number of wells and stored on ice. 0.5 μL of the compounds to be assayed were added into wells. 25 μL of Buffer A was dispensed into the wells, followed by 25 μL of Buffer B. The wells were measured for absorbance at 340 nm, using a kinetic protocol in which the wells are read every 1.5-2 min for 45 min. The slope of the data was approximated by subtracting the minimum absorbance value from the maximum value for each well. This was accomplished either in the SoftMax Pro software or in a spreadsheet program such as Excel. Using GraphPad Prism 8.0, the data was normalized by assigning a value of 100% to the 1% DMSO vehicle wells. Typically, a normalized 0% value was simply assigned to a (Max−Min) value of 0. The normalized data was fit to a Four Parameter Logistic sigmoidal equation, constraining the bottom to be 0 or greater. Compounds of Table 1, 2, and 3 were tested and results of the assay appear in Tables 4a-4c. A=IC50 is less than or equal to 10 μM; B=IC50 is greater than 10 μM and less than 100 μM; C=IC50 is greater than 100 μM.

[2] = biological target: T1, cardiac myofibrils (myosin ATPase); assay: Cardiac Myofibril ATPase Assay (counter screen); format: biochemical; settings: myofibrils 1.0 mg/mL, KCl omitted
T1 construct: frozen myofibril pellets obtained from cardiac tissue; from tissue
Experimental: as §1
Example 13: Cardiac Myofibril ATPase Assay
Following example 11, the counter screen was done using frozen myofibril pellets obtained from cardiac tissue. The assay was done in the same manner as above, with the following notable exceptions: the final well concentration of myofibrils was 1.0 mg/mL and KCl was omitted from the recipe.
Compounds of Table 1 to 3 were tested, and results of the assays appear in Tables 5a-5c herein. A=IC50 is less than or equal to 10 μM; B=IC50 is greater than 10 μM and less than 100 μM; C=IC50 is greater than 100 μM; and […].

T1 sequence (P12883 whole entry): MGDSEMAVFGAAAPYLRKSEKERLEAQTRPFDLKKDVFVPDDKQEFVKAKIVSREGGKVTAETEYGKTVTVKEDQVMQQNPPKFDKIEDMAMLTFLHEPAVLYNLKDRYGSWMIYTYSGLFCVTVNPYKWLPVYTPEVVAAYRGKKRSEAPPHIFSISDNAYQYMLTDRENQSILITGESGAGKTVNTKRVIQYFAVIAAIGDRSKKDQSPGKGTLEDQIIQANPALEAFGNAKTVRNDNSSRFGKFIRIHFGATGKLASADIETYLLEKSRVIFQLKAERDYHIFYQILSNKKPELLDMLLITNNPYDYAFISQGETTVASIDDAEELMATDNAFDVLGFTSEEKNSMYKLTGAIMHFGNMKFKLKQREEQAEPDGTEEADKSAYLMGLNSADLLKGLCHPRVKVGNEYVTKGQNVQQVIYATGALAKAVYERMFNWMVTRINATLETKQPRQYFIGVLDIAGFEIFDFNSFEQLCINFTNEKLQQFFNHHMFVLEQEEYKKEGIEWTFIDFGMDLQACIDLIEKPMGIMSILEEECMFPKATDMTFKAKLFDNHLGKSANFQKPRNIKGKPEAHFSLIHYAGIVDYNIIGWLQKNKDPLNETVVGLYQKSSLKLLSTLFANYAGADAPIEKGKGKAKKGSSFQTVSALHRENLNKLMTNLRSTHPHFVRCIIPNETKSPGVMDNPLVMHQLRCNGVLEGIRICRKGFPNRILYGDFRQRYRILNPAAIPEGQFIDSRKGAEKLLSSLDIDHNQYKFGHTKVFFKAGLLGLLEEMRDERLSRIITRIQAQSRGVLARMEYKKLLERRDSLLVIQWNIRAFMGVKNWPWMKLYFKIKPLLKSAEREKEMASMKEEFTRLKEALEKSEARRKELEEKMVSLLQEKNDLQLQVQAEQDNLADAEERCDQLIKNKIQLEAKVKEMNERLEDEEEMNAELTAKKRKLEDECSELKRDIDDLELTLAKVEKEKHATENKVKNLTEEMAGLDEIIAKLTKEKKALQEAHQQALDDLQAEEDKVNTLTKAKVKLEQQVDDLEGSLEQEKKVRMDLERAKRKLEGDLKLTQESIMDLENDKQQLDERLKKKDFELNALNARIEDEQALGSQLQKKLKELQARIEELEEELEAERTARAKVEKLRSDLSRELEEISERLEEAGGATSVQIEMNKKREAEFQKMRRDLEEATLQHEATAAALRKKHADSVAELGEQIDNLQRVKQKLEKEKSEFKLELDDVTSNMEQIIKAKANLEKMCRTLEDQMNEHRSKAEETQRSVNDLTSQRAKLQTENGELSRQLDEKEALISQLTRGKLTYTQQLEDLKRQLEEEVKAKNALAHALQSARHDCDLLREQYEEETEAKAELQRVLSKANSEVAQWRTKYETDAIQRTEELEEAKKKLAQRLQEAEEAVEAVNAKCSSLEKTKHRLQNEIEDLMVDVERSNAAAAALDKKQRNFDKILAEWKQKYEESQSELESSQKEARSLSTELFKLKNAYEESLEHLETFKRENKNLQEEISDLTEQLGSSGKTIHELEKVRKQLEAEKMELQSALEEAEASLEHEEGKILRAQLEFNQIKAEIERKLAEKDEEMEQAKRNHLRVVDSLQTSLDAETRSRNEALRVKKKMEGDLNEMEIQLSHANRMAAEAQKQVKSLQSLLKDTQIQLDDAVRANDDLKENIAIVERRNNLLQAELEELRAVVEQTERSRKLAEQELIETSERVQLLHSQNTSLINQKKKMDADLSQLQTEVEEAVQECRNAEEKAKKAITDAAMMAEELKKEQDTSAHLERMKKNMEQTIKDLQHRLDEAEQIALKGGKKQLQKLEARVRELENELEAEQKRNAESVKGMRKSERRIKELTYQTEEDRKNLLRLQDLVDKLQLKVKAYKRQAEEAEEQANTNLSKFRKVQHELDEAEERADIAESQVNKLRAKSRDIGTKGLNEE
T1 sequence (P08590 whole entry partner): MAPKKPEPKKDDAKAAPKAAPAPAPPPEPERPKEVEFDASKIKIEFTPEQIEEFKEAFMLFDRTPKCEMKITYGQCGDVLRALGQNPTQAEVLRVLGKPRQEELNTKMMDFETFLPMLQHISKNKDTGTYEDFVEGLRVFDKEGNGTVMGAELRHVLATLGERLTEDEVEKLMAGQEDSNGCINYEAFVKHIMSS
T1 sequence (P10916 whole entry partner): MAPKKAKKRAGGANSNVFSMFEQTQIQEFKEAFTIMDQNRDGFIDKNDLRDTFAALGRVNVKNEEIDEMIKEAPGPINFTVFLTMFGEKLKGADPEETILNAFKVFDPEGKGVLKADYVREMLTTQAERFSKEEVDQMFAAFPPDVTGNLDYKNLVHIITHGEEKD

| Structure (SMILES) | IC50 ([1]; Table 4C) [µM] | IC50 ([2]; Table 5C) [µM] | IC50 ([1]; Table 4A) [µM] | IC50 ([2]; Table 5A) [µM] | IC50 ([1]; Table 4B) [µM] |
| --- | --- | --- | --- | --- | --- |
| COc1ccc(-c2ccc(=O)n(CC(=O)NCc3cc(Cl)ccc3Cl)n2)cc1 | < 10 | > 100 |  |  |  |
| CC(C)[C@@](C)(C#N)NC(=O)Cn1nc(-c2ccc(OC(F)F)nc2)ccc1=O (stereo in doubt) [Compound I-34, N-(2-cyano-3-methylbutan-2-yl)-2-(3-(6-(difluoromethoxy)pyridin-3-yl)-6-oxopyridazin-1(6H)-yl)acetamide] |  |  | 10 to 100 | > 100 |  |
| CCNC(=O)Cn1nc(-c2cnc(Nc3ccc(Cl)cc3)nc2)ccc1=O [Compound I-1, 2-(3-(2-((4-chlorophenyl)amino)pyrimidin-5-yl)-6-oxopyridazin-1(6H)-yl)-N-ethylacetamide] |  |  | < 10 | > 100 |  |
| O=C(Cn1nc(-c2ccc(OC(F)F)nc2)ccc1=O)NC1CCC1 [Compound I-4, N-cyclobutyl-2-(3-(6-(difluoromethoxy)pyridin-3-yl)-6-oxopyridazin-1(6H)-yl)acetamide] |  |  | < 10 | > 100 |  |
| CCNC(=O)Cn1nc(-c2ccc(OC(F)F)nc2)ccc1=O [Compound I-7, 2-(3-(6-(difluoromethoxy)pyridin-3-yl)-6-oxopyridazin-1(6H)-yl)-N-ethylacetamide] |  |  | < 10 | > 100 |  |
| CCNC(=O)Cn1nc(-c2cnc(OCC(F)(F)F)nc2)ccc1=O [Compound I-8, N-ethyl-2-(6-oxo-3-(2-(2,2,2-trifluoroethoxy)pyrimidin-5-yl)pyridazin-1(6H)-yl)acetamide] |  |  | < 10 | > 100 |  |
| O=C(Cn1nc(-c2ccc(OC(F)F)nc2)ccc1=O)NC12CC(C1)C2 [Compound I-11, N-(bicyclo[1.1.1]pentan-1-yl)-2-(3-(6-(difluoromethoxy)pyridin-3-yl)-6-oxopyridazin-1(6H)-yl)acetamide] |  |  | 10 to 100 | > 100 |  |
| CCNC(=O)Cn1nc(-c2ccc(C3CC3)nc2)ccc1=O [Compound I-12, 2-(3-(6-cyclopropylpyridin-3-yl)-6-oxopyridazin-1(6H)-yl)-N-ethylacetamide] |  |  | 10 to 100 | > 100 |  |
| CCNC(=O)Cn1nc(-c2ccc(OCC(F)(F)F)nc2)ccc1=O [Compound I-13, N-ethyl-2-(6-oxo-3-(6-(2,2,2-trifluoroethoxy)pyridin-3-yl)pyridazin-1(6H)-yl)acetamide] |  |  | 10 to 100 | > 100 |  |
| CC1(NC(=O)Cn2nc(-c3ccc(OC(F)F)nc3)ccc2=O)CCC1 [Compound I-15, 2-(3-(6-(difluoromethoxy)pyridin-3-yl)-6-oxopyridazin-1(6H)-yl)-N-(1-methylcyclobutyl)acetamide] |  |  | 10 to 100 | > 100 |  |
| CCNC(=O)Cn1nc(-c2ccc(N3CC(C)(C)C3)nc2)ccc1=O [Compound I-18, 2-(3-(6-(3,3-dimethylazetidin-1-yl)pyridin-3-yl)-6-oxopyridazin-1(6H)-yl)-N-ethylacetamide] |  |  | 10 to 100 | > 100 |  |
| CCNC(=O)Cn1nc(-c2ccc(N3CCC34COC4)nc2)ccc1=O [Compound I-19, 2-(3-(6-(6-oxa-1-azaspiro[3.3]heptan-1-yl)pyridin-3-yl)-6-oxopyridazin-1(6H)-yl)-N-ethylacetamide] |  |  | 10 to 100 | > 100 |  |
| CCC(C)(C)NC(=O)Cn1nc(-c2ccc(OC(F)F)nc2)ccc1=O [Compound I-20, 2-(3-(6-(difluoromethoxy)pyridin-3-yl)-6-oxopyridazin-1(6H)-yl)-N-(tert-pentyl)acetamide] |  |  | 10 to 100 | > 100 |  |
| CCNC(=O)Cn1nc(-c2ccc(OCC3COC3)nc2)ccc1=O [Compound I-22, N-ethyl-2-(3-(6-(oxetan-3-ylmethoxy)pyridin-3-yl)-6-oxopyridazin-1(6H)-yl)acetamide] |  |  | 10 to 100 | > 100 |  |
| CC[C@H](C)NC(=O)Cn1nc(-c2ccc(OC(F)F)nc2)ccc1=O [Compound I-67, (S)-N-(sec-butyl)-2-(3-(6-(difluoromethoxy)pyridin-3-yl)-6-oxopyridazin-1(6H)-yl)acetamide] |  |  | < 10 |  |  |

More lines, now with the values ahead:

| IC50 ([1]; Table 4C) [µM] | IC50 ([2]; Table 5C) [µM] | IC50 ([1]; Table 4A) [µM] | IC50 ([2]; Table 5A) [µM] | IC50 ([1]; Table 4B) [µM] | Structure (SMILES) |
| --- | --- | --- | --- | --- | --- |
|  |  | < 10 | > 100 |  | CCNC(=O)Cn1nc(-c2cnc(Nc3ccc(F)cc3)nc2)ccc1=O [Compound I-2, N-ethyl-2-(3-(2-((4-fluorophenyl)amino)pyrimidin-5-yl)-6-oxopyridazin-1(6H)-yl)acetamide] |
|  |  | < 10 | > 100 |  | COc1ccc(-c2ccc(=O)n(CC(=O)NCc3ccccc3Cl)n2)cn1 [Compound I-5, N-(2-chlorobenzyl)-2-(3-(6-methoxypyridin-3-yl)-6-oxopyridazin-1(6H)-yl)acetamide] |
|  |  | 10 to 100 | > 100 |  | CCNC(=O)Cn1nc(-c2ccc(N3CC(F)(F)C3)nc2)ccc1=O [Compound I-6, 2-(3-(6-(3,3-difluoroazetidin-1-yl)pyridin-3-yl)-6-oxopyridazin-1(6H)-yl)-N-ethylacetamide] |
|  |  | 10 to 100 | > 100 |  | CCNC(=O)Cn1nc(-c2ccc(OCCC(F)(F)F)nc2)ccc1=O [Compound I-10, N-ethyl-2-(6-oxo-3-(6-(3,3,3-trifluoropropoxy)pyridin-3-yl)pyridazin-1(6H)-yl)acetamide] |
|  |  | 10 to 100 | > 100 |  | CCNC(=O)Cn1nc(-c2ccc(OC(F)(F)F)nc2)ccc1=O [Compound I-14, N-ethyl-2-(6-oxo-3-(6-(trifluoromethoxy)pyridin-3-yl)pyridazin-1(6H)-yl)acetamide] |
|  |  | 10 to 100 | > 100 |  | COc1ccc(-c2ccc(=O)n(CC(=O)NC(C)C)n2)cn1 [Compound I-16, N-isopropyl-2-(3-(6-methoxypyridin-3-yl)-6-oxopyridazin-1(6H)-yl)acetamide] |
|  |  | 10 to 100 | > 100 |  | O=C(Cn1nc(-c2ccc(OC(F)F)nc2)ccc1=O)N[C@H]1CC12CC2 [Compound I-17, (S)-2-(3-(6-(difluoromethoxy)pyridin-3-yl)-6-oxopyridazin-1(6H)-yl)-N-(spiro[2.2]pentan-1-yl)acetamide] |
|  |  | 10 to 100 | > 100 |  | CCNC(=O)Cn1nc(-c2ccc(Oc3ccc(F)cc3)nc2)ccc1=O [Compound I-21, N-ethyl-2-(3-(6-(4-fluorophenoxy)pyridin-3-yl)-6-oxopyridazin-1(6H)-yl)acetamide] |
|  |  | 10 to 100 | > 100 |  | CCNC(=O)Cn1nc(-c2ccc(OCC3(F)COC3)nc2)ccc1=O [Compound I-23, N-ethyl-2-(3-(6-((3-fluorooxetan-3-yl)methoxy)pyridin-3-yl)-6-oxopyridazin-1(6H)-yl)acetamide] |
|  |  | < 10 |  |  | O=C(Cn1nc(-c2ccc(NC34CC(C3)C4)nc2)ccc1=O)NC12CC(C1)C2 [Compound I-46, N-(bicyclo[1.1.1]pentan-1-yl)-2-(3-(6-(bicyclo[1.1.1]pentan-1-ylamino)pyridin-3-yl)-6-oxopyridazin-1(6H)-yl)acetamide] |
|  |  | < 10 |  |  | CCNC(=O)Cn1nc(-c2ccc(NC)nc2)ccc1=O [Compound I-47, N-ethyl-2-(3-(6-(methylamino)pyridin-3-yl)-6-oxopyridazin-1(6H)-yl)acetamide] |
|  |  | < 10 |  |  | CCNC(=O)Cn1nc(-c2ccc(N3CCCC3C(F)(F)F)nc2)ccc1=O (stereo not shown) [Compound I-48, N-ethyl-2-(6-oxo-3-(6-(2-(trifluoromethyl)pyrrolidin-1-yl)pyridin-3-yl)pyridazin-1(6H)-yl)acetamide] |
|  |  | 10 to 100 |  |  | CCNC(=O)Cn1nc(-c2cnc(OCCOC(F)(F)F)nc2)ccc1=O [Compound I-49, N-ethyl-2-(6-oxo-3-(2-(2-(trifluoromethoxy)ethoxy)pyrimidin-5-yl)pyridazin-1(6H)-yl)acetamide] |
|  |  |  |  | < 10 | CC(=O)Nc1ccc(-c2ccc(=O)n(CC(=O)NCc3ccccc3Cl)n2)cc1 [II-8, 2-(3-(4-acetamidophenyl)-6-oxopyridazin-1(6H)-yl)-N-(2-chlorobenzyl) acetamide] |
